Data taken from US11352391B2, “Compositions for inducing urinary voiding and defecation” (Dignify Therapeutics, LLC, priority 2017, dated 2022).
Where two headings read alike, the source gives them in different places. Where a SMILES comes first, the peptide text is derived from it.

Assays:
[1] = target: T1, human NK2 Receptor (hNK2R) (Homo sapiens, UniProt P21452); test: [125I]-NKA radioligand competition binding to human recombinant NK2Rs (CHO-hNK2 membranes); conditions: for hNK2 selectivity ratio: ratio of Kis hNK1R/hNK2R
T1 sequence (P21452 1-398): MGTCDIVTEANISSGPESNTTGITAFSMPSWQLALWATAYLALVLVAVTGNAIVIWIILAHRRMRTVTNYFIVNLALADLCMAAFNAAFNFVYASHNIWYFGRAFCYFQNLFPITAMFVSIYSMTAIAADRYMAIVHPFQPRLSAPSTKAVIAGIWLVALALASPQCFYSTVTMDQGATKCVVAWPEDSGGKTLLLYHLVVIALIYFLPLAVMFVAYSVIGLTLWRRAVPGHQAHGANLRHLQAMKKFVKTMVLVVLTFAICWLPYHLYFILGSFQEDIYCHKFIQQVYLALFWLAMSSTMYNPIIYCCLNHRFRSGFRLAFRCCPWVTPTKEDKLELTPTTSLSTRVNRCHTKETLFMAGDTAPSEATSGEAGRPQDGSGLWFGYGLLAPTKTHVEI
Description: (§1) After removal of the supernatant the cell pellet was washed and collected by re-suspension in PBS and centrifugation.
(§2) Frozen pellets were thawed and homogenized in 10 volumes (w/v) of membrane preparation buffer (50 mM HEPES pH 7.4, 1 mM EDTA, 50 μg/mL bacitracin and protease inhibitors) using a Polytron Ultraturrax (twice for 15 s per cycle). […] Protein concentration was determined using BioRad Protein Assay (Milan, Italy) with a BSA standard curve.

[2] = target: human NK1 Receptor (hNK1R) (Homo sapiens, UniProt P25103); test: [3H]-septide radioligand competition binding to human recombinant NK1Rs (CHO-hNK1 membranes)
Sequence of human NK1 Receptor (hNK1R) (P25103 whole entry): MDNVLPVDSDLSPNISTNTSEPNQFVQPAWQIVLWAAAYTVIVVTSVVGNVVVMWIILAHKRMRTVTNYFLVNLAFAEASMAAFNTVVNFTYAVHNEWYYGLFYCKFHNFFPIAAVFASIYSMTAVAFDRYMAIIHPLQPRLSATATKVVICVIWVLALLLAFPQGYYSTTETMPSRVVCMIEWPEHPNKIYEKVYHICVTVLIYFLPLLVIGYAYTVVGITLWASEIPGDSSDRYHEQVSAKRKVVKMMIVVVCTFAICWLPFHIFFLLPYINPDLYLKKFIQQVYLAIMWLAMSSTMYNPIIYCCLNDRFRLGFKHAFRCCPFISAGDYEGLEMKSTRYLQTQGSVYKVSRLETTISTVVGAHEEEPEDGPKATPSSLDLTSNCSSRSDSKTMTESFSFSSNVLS
Description: as §1, §2

[3] = target: recombinant hNK1R expressed in CHO cells (Homo sapiens, UniProt P25103); test: Intracellular calcium mobilization (FLIPR) in CHO-hNK1 cells; format: cell-based
Sequence of recombinant hNK1R expressed in CHO cells (P25103 whole entry): as above
Description: (§3) CHO-hNK1 and CHO-hNK2 cells were seeded into black walled clear-bottom 384-well plates) at a density of 10,000 and 15,000 cells per well in 50 μL culture media, respectively, and grown overnight at 37° C. in a humidified CO2-incubator. Cells were washed in washing buffer using the EMBLA 384 instrument, leaving 20 μL of buffer per well after the final aspiration. Cells were then incubated at 37° C. with the cytoplasmic Ca2+ indicator Fluo-4 AM (final concentration 1 μM) in assay buffer (20 mM HEPES, 145 mM NaCl, 5 mM KCl, 5.5 mM glucose, 1 mM MgCl2 and 2 mM CaCl2, pH 7.4, 0.05% Pluronic F-127 and 0.1% BSA) containing 2.5 mM probenecid for […] (cell loading). Cells were then washed 3 times in washing buffer (20 mM HEPES, 145 mM NaCl, 5 mM KCl, 5.5 mM glucose, 1 mM MgCl2 and 2 mM CaCl2, pH 7.4 and 2.5 mM probenecid) using the EMBLA 384 instrument, leaving 30 μL of buffer in each well after the last wash. Loaded cell plates were transferred to the FLIPR machine and calcium responses were monitored as described below. A dual read-out FLIPR protocol was used, allowing for characterization of both agonist and antagonist profiles. For quality control, in each compound plate the signal was monitored by evaluating the responses to the reference standards (NKA and Substance P).
(§4) Concentration response curves of compounds were run in duplicate on two different occasions from the same stock solutions. Test solutions were prepared from 10 mM stock solutions in DMSO and 1 μL of each solution was stamped into V-bottom assay plates containing 49 μL assay buffer. The final concentration of DMSO was 0.5% in each well.

[4] = Pharmacokinetics in rat plasma after cassette IV bolus dosing; conditions: Sprague-Dawley, in vivo
Description: The concentrations of compounds (SEQ ID NOS: 1-11) were measured in rat plasma after intravenous (IV) bolus dosing to determine pharmacokinetic profiles of individual compounds.
Animal preparation: In vivo studies were performed in anesthetized adult Sprague Dawley rats. Rats were anesthetized with urethane (1.2-1.4 g/kg subcutaneous injection). Surgical procedures were then performed with the addition of isoflurane anesthesia (0.05-1.5% in 02) as needed. A venous cannula was inserted into the jugular vein for intravenous (IV) administration of compounds.
In vivo dosing and plasma sampling: Compounds were divided into two groups (soluble and insoluble). Each group was dosed as a cassette in which four compounds (100 μg/kg each compound) were combined into a single IV bolus injection to anesthetized adult Sprague-Dawley rats. Soluble compounds were dissolved in saline. Insoluble compounds were dissolved in a 10% ethanol/saline solution. Rats were cassette dosed based on weight using 0.1 mg/mL solutions of individual compounds. Blood samples (700 μL) were collected using a carotid artery cannula into EDTA tubes containing ascorbic acid (final concentration 1%), and plasma was isolated.
Bioanalytical assay: A reversed-phase HPLC with Turbo Ion Spray MS/MS detection method was developed for bioanalysis. Mass spec transition and settings were individually optimized for each compound and then compounds were cassetted for HPLC method development and optimization. [^13C9; ^15N] [Lys5,MeLeu9,Nle10]-NKA(4-10) was used as an internal standard (IS). Analyte-to-IS peak area ratios for individual compounds were used to create linear calibration curves (1-20 ng/mL) using 1/×2 weighted least-squares regression analysis for evaluation of method linearity, precision and accuracy. For plasma concentration measurements, plasma samples were spiked with IS, processed by extraction, and analyzed using LC-MS/MS. Positive (M+H)+ ions for individual compounds and IS were monitored in MRM mode.

[5] = tested on: anesthetized dog; test: Colorectal pressure manometry in anesthetized dog; format: in vivo; conditions: for duration of colorectal pressure response: IV bolus (B and E 3 μg/kg; G 3, 30 and 66 ug/kg); for onset of increase in colorectal pressure: IV bolus (E 3 μg/kg; G 3, 30 and 66 ug/kg)
Description: Animal preparation: Naïve beagle dogs were fasted for 12-24 hours and received a warm water enema the night prior to, and the morning of, the experiment to clear the rectum and lower colon of feces. The day of the experiment, a 20 gauge IV catheter (Terumo Surflo) was placed in the cephalic vein for anesthetic induction (propofol, 10 mg/kg; IV) and delivery of IV fluids (5-10 ml/kg/hr) and compounds. The sedated dog was intubated with a 5-6 Fr tracheal tube and was maintained on 2-3% isoflurane via a ventilator (15-25 breaths/min; tidal volume […]) for the remainder of the experiment.
Bowel contractility: For colorectal pressure manometry, an ˜3 inch balloon catheter was inserted into the rectum and secured to the tail with tape. This catheter was connected via a three-way stopcock to a pressure transducer (UTAH MEDICAL PRODUCTS; DelTran II) for pressure recording. Data were recorded using PowerLab/8SP acquisition system using LabChart software (version 7.3.7; ADINSTRUMENTS, Australia). Arterial pressure, ECG, temperature and blood oxygen saturation (spO2) were monitored throughout the experiment (MEDTRONIC LIFEPAK12). Dogs were recovered in a quiet room under veterinary supervision.

[6] = target: T2, recombinant hNK2R expressed in CHO cells (Homo sapiens, UniProt P21452); test: Intracellular calcium mobilization (FLIPR) in CHO-hNK2 cells; format: cell-based; conditions: for hNK2 selectivity ratio: ratio of EC50s hNK1R/hNK2R
T2 sequence (P21452 1-398): T1 sequence (P21452 1-398)
Description: as §3, §4

[7] = Saline solubility of heptapeptides; format: physicochemical
Description: Heptapeptides A-K shown below in Table 1 (SEQ ID NOs: 1-11) were synthesized according to standard Fmoc-mediated solid-phase techniques and purified under typical C18 reverse-phase conditions.
Compounds D-K were considered to be insoluble in saline (<1 mg/mL).

[8] = displacement of 0.1 nM [125I]-NKA, CHO-hNK2 membranes, read-out: hNK2 binding Ki
[9] = displacement of 5.0 nM [3H]-septide, CHO-hNK1 membranes, read-out: hNK1 binding Ki
[10] = calcium mobilization, CHO-hNK1 cells, read-out: hNK1 EC50
[11] = calcium mobilization, CHO-hNK2 cells, read-out: hNK2 EC50

Row | SMILES | Ki [1, 8] [nM] | hNK2 selectivity ratio [1] | Ki [2, 9] [nM] | EC50 [3, 10] [nM] | half-life ([4]; iv) [min] | duration of colorectal pressure response [5] | onset of increase in colorectal pressure [5] [min] | EC50 [6, 11] [nM] | hNK2 selectivity ratio [6] | solubility [7] [µg/mL] | Ki [1] [nM] | Ki [2] [nM] | EC50 [3] [nM] | level at 10 min ([4]; 100 ug/kg, cassette IV bolus 100 μg/kg, by 10 min post-dose, read-out: plasma concentration) [ng/mL] | half-life ([4]; cassette IV bolus, 100 μg/kg each compound, read-out: plasma t1/2) [min] | EC50 [6] [nM]
1 | CCCC[C@H](NC(=O)[C@H](CC(C)C)NC(=O)CCNC(=O)[C@@H](NC(=O)[C@H](Cc1ccccc1)NC(=O)[C@H](CCCCN)NC(=O)[C@@H](N)CC(=O)O)C(C)C)C(N)=O [Compound G, Asp-Lys-Phe-Val-(β-Ala)-Leu-Nle-NH2] (HELM PEPTIDE1{D.K.F.V.[bAla].L.[Nle].[am]}$$$$V2.0; N-terminus assumed) | 16.4 | 188.58 | 3090 | 78.2 | 3.3 to 4.7 | approximately 5 minutes | ≤ 1 | 3 | 26 | < 1000 |  |  |  |  |  | 
2 | CCCC[C@H](NC(=O)[C@H](CC(C)C)NC(=O)CCNC(=O)[C@@H](NC(=O)[C@H](Cc1ccccc1)NC(=O)[C@H](CCCNC(=N)N)NC(=O)[C@@H](N)CC(=O)O)C(C)C)C(N)=O [K, Asp-Arg-Phe-Val-(β-Ala)-Leu-Nle-NH2] (HELM PEPTIDE1{D.R.F.V.[bAla].L.[Nle].[am]}$$$$V2.0; N-terminus assumed) | 6.85 | 175.59 | 1200 | 29.5 | 3.3 to 4.7 |  |  | 1.16 | 25 | < 1000 |  |  |  |  |  | 
3 | CSCC[C@H](NC(=O)[C@H](CC(C)C)NC(=O)CCNC(=O)[C@@H](NC(=O)[C@H](Cc1ccccc1)NC(=O)[C@H](CCCCN)NC(=O)[C@@H](N)CC(=O)O)C(C)C)C(N)=O [Compound E, Asp-Lys-Phe-Val-(β-Ala)-Leu-Met-NH2] (HELM PEPTIDE1{D.K.F.V.[bAla].L.M.[am]}$$$$V2.0; N-terminus assumed) | 2.11 | 122.04 | 257 | 6.31 | 3.3 to 4.7 | approximately 4 minutes | ≤ 1 | 0.18 | 36 | < 1000 |  |  |  |  |  | 
4 | CSCC[C@H](NC(=O)[C@H](CC(C)C)N(C)C(=O)CNC(=O)[C@@H](NC(=O)[C@H](Cc1ccccc1)NC(=O)[C@H](CCCCN)NC(=O)[C@@H](N)CC(=O)O)C(C)C)C(N)=O [A, Asp-Lys-Phe-Val-Gly-(NMe-Leu)-Met-NH2] |  | 248.89 |  |  |  |  |  |  | 7 | > 20000 | 0.2 | 50.1 | 0.95 | < 1 | 0.2 to 1.2 | 0.14
